The results in this text go back to patent US20240226005A1, “NANO- AND MICRO-FORMULATIONS” (Huxley Health Inc., priority 2023, published 2024).

SMILES strings stand for the structures. “Also recorded” adds a separate entry of the source.

The subject of series [1] is human glioma U251 GBM cells. Nature of the series: Cellular uptake, flow cytometry and fluorescence microscopy. The class given is cell-based. Particulars: flow cytometry and fluorescence imaging. As for the experimental part:
Cellular uptake studies: The human glioma U251 GBM cells were cultured at 5×10^4 cells per well in 12 plates using EMEM media supplemented with 10% FBS, 0.5% PenStrep and 1% w/non-essential amino acids (NEAA); then, washed with 0.05% trypsin. The cells were cells were incubated overnight at 37° C. in a humidified 5% CO2 atmosphere. The cells were treated with NEs loaded with bufotenine and Nile Red dye diluted to 0.1 mg/ml in PBS. Untreated cells were used as a negative control a long with a solution of unformulated API and Nile Red. This was done to serve as a sort of a positive control against the negative control of the untreated cells. After 24 h exposure, cells were washed twice with PBS and then collected in PBS-EDTA media (2 mM). The flow cytometry was performed using a BD C6 Flow Cytometry apparatus at a wavelength of 488 nm laser. For each experiment 10,000 cells were gated per sample and each sample was performed in triplicate. These cells prepared as such were used for fluorescence analysis. Fluorescence images were taken using a Leica CRT 6500 at the desired magnification using Texas Red Set (Leica TX2 ET Set) filter and exciting the samples using a continuous wave Ar+ laser at 488 nm.

The subject of series [2] is L2, SW982, HCT116, 231 cells. Put plainly: Cytotoxicity assay (MTT) on four cell lines. The series is classed as cell-based, rat, human. Particulars: 48 h, 10- to 10000-fold dilutions of 1 mg/g. As for the experimental part: Four different cell lines were used for the evaluation of the tested formulations and unformulated bufotenin. • L2:Rat lung cells (Normal) https://www.atcc.org/products/ccl-149 • SW982: The human synovial sarcoma cells https://www.atcc.org/products/htb-93 • HCT116: The human colon cancer cells https://www.atcc.org/products/ccl-247 • 231: The human breast cancer cells https://www.atcc.org/products/crm-htb-26
Cytotoxicity assay: The effect of the NEs on cell viability was measured by MTT assay following the method by Mosmann and colleagues. Briefly, the cells were seeded in a 96 well micro titer plate (100 μL per well) with replications. After 24 h, cells were treated with 50 μL of the analyte at four different dilutions (10,100,1000, and 10000-fold), added directly to wells with culture media. The starting concentration for Kolliphor-Bf-SNEDDS, Kolliphor-Bfa-t-SNEDDSand unformulated bufoteninin DMSO were 1 mg·g^−1. After incubation for 48 h, the media was discarded. 100 μL of 0.5 mg·mL^−1 MTT stock solution was added to each well and incubated for 4 h at 37° C. The obtained formazan crystals were solubilized with DMSO, and the absorbance was measured at 570 nm using a microplate reader (SpectraMax M5e, Molecular Devices, USA). Cell viability (%) was calculated as a ratio of absorbance (A570) in treated cells to absorbance in control cells (intact cells without treatment) (A570).

Take `CN(C)CCc1c[nH]c2ccc(O)cc12` [unformulated bufotenin, 5-Hydroxy-N,N-dimethyltryptamine]: the “cellular uptake (in words)” value in series [1] is “no unformulated bufotenin penetrated the glioma cells; also recorded: negligible”. Further, the “cytotoxicity / cell viability” value in series [2] is given as “no effect on their viability”.
